Reference: patent publication US10416175B2, “Opioid detection” (Randox Laboratories Limited, priority 2015, dated 2019)
In brackets after ≈: the same amount, converted by molar mass. Several values for one entry are separate records, joined by “and”; a condition that tells them apart may be missing. Equal entries are not always repeated. Structures can show the parent of a compound that is named as a salt.

What was measured:
[1] = test system: antibody specific to mitragynine; conditions: polyclonal antibody of U.S. application 14/184,422, based on 100% to mitragynine; cited from earlier work
[2] = test system: antibody specific to mitragynine; test: ELISA for mitragynine and 8-desmethylmitragynine (polyclonal antibody to mitragynine); format: binding; conditions: for % CR: based on 100% specificity to mitragynine; for IC50: standard concentration which produces 50% B/B0
Excerpt: In one embodiment, the antibodies and immunoassay methods and kits for mitragynine (kratom), are as described in U.S. patent application Ser. No. 14/184,422, filed Feb. 19, 2014 entitled “Immunoassay for Detecting Kratom, its Constituents and their Use” the entire contents of which are incorporated herein by reference. In particular, U.S. patent application Ser. No. 14/184,422 describes a polyclonal antibody which that binds specifically to an epitope of one or more of mitragynine, 8-desmethylmitragynine, 8-sulphonylmitragynine, and 8-glucuronidylmitragynine which was raised to an immunogen having the structure of:
[drawing 5] • wherein HRP is horseradish peroxidase.

[3] = test system: antibody raised against Immunogen-2; test: Competitive ELISA with polyclonal antibody raised against Immunogen-2, Tracer-1 as detecting agent; format: binding, sheep; conditions: for % CR: relative to O-desmethyltramadol = 100
Experimental: Pre-immunization blood samples are collected from sheep. In order to generate polyclonal antisera, 2 mgs of the immunogen (structure 1) is prepared in PBS, mixed at a ratio of 50% immunogen in PBS to 50% Freund's Complete adjuvant (Sigma, Product Number F5881) and emulsified by repeatedly passing the mixture through a tip on the end of a 1 ml syringe, until it reaches the required semi-solid consistency. 1.1 ml of the emulsified mixture is injected intramuscularly into each host animal (sheep) as the primary immunisation dose. Further injections (boosts) are prepared (1 mg of immunogen is prepared in PBS and mixed at a ratio of 50% Immunogen in PBS/50% Freunds Incomplete adjuvant, Sigma, Product Number—F5506). Boost injections are delivered intramuscularly at monthly intervals, 1 ml per animal. Serum is sampled monthly by collection of whole blood from the jugular vein for evaluation of the antibody titre. The degree of antibody purification required depends on the intended application. For many purposes, there is no requirement for purification of the serum, however, in other cases, such as, where the antibody is to be immobilised on a solid support, purification steps (such as caprylic acid/ammonium sulphate precipitation) can be taken to remove undesired material and eliminate non-specific binding. In another embodiment, the purification is by immunoglobulin precipitation, antigen-specific affinity purification, column chromatography, such as, size-exclusion chromatography or ion exchange chromatography.
The polyclonal antibody raised against Immunogen-2 of Example 9 was removed from fridge or freezer and brought to room temperature. The antibody was diluted to 2.5 μg/ml in 10 mM Tris pH 8.5 and all appropriate wells are coated at 125 μl/well at 37° C. for 2 hours or at 4° C. overnight. The plate was washed 4 times over a period of 10 minutes with working strength tris-buffered saline and tween 20 (TBST) wash buffer and tapped dry. 50 μl of working strength TBST was pipetted into the appropriate wells. Dilutions of target analyte and potential crossreactant(s) were prepared in working strength TBST and pipetted (50 μl) into the appropriate wells beginning with the lowest concentration to the highest concentration. Hapten-HRP (Tracer-1) conjugate at the appropriate concentration was prepared in conjugate dilution buffer and 75 μl into pipetted into appropriate wells. The plate was tapped gently to mix contents, sealed and incubated at 25° C. for 1 hour. The plate was washed 6 times over a 10-15 minute period (3 quick washes followed by 3 additional washes over 12 minutes) and tapped dry thoroughly onto tissue paper. Trimethylbenzidine (TMB) solution (125 μl) was added to each well and tapped gently, and the plate was incubated at room temperature for 20 minutes in the dark. The reaction was stopped by addition of 125 μl of 0.2 M sulphuric acid to each well and the absorbance measured at 450 nm using an ELISA plate reader (Biotek Elx800).

[4] = test system: Immunanalysis Tramadol commercial immunoassay; conditions: cited from earlier work
[5] = test system: Randox Tramadol commercial immunoassay; conditions: cited from earlier work
[6] = over 24-72 hours, following oral administration of tramadol; cited from earlier work
[7] = test system: IDS Tramadol commercial immunoassay; conditions: cited from earlier work
[8] = test system: Neogen Tramadol commercial immunoassay; conditions: cited from earlier work
[9] = test system: Bio-Quant Tramadol commercial immunoassay; conditions: cited from earlier work
[10] = antibodies from three sheep immunised with Immunogen-2

CC[C@@H]1CN2CCc3c([nH]c4cccc(OC)c34)[C@@H]2C[C@@H]1/C(=C\OC)C(=O)OC [Mitragynine, mitragynine]
cross-reactivity [1]: 100% | B/Bo ([2]; 0.313 ng/ml analyte): 75 | B/Bo ([2]; 0.625 ng/ml analyte): 63 | B/Bo ([2]; 1.250 ng/ml analyte): 49 | B/Bo ([2]; 2.500 ng/ml analyte): 37 | B/Bo ([2]; 5.000 ng/ml analyte): 25 | B/Bo ([2]; 10.000 ng/ml analyte): 17 | B/Bo ([2]; 20.000 ng/ml analyte): 11 | % CR [2]: 100.00% | IC50 [2]: 1.193 ng/mL (≈ 2.99 nM)

CC[C@@H]1CN2CCc3c([nH]c4cccc(O)c34)[C@@H]2C[C@@H]1/C(=C\OC)C(=O)OC [8-Desmethylmitragynine, 8-desmethylmitragynine]
cross-reactivity [1]: about 77.87% | B/Bo ([2]; 0.313 ng/ml analyte): 74 | B/Bo ([2]; 0.625 ng/ml analyte): 63 | B/Bo ([2]; 1.250 ng/ml analyte): 54 | B/Bo ([2]; 2.500 ng/ml analyte): 42 | B/Bo ([2]; 5.000 ng/ml analyte): 29 | B/Bo ([2]; 10.000 ng/ml analyte): 18 | B/Bo ([2]; 20.000 ng/ml analyte): 13 | % CR [2]: 77.87% | IC50 [2]: 1.532 ng/mL (≈ 3.98 nM)

(±)-cis-2-[(dimethylamino)methyl]-1-(3 hydroxyphenyl)-cyclohexanol [O-Desmethyltramadol]
B/Bo ([3]; 0.156 ng/ml analyte): 53 | B/Bo ([3]; 0.313 ng/ml analyte): 37 | B/Bo ([3]; 0.625 ng/ml analyte): 24 | B/Bo ([3]; 1.250 ng/ml analyte): 16 | B/Bo ([3]; 2.500 ng/ml analyte): 10 | B/Bo ([3]; 5.000 ng/ml analyte): 6 | B/Bo ([3]; 10.000 ng/ml analyte): 4 | IC50 of antibodies to O-desmethyltramadol [3, 10]: 0.178 ng/mL and 0.181 ng/mL and 0.214 ng/mL | % CR [3]: 100% | % Cross-reactivity [4]: 6% | % Cross-reactivity [5]: 57% | Urinary excretory amount [6]: 5-15% | % Cross-reactivity [7]: 40% | % Cross-reactivity [8]: 27% | % Cross-reactivity [9]: 100%

CNC[C@@H]1CCCC[C@@]1(O)c1cccc(OC)c1 (racemic) [N-Desmethyltramadol, (±)-cis-2-[(methylamino)methyl]-1-(3-methoxyphenyl)cyclohexanol]
B/Bo ([3]; 0.156 ng/ml analyte): 97 | B/Bo ([3]; 0.313 ng/ml analyte): 98 | B/Bo ([3]; 0.625 ng/ml analyte): 99 | B/Bo ([3]; 1.250 ng/ml analyte): 100 | B/Bo ([3]; 2.500 ng/ml analyte): 99 | B/Bo ([3]; 5.000 ng/ml analyte): 97 | B/Bo ([3]; 10.000 ng/ml analyte): 98 | cross-reactivity (in words) [3, 10]: no cross-reactivity | IC50 ([3]; antibody raised against Immunogen-2, Tracer-1): >>10 ng/ml | binding (in words) ([3]; at the concentrations tested (Table 2)): no appreciable binding | % CR [3]: <<1.78% | % Cross-reactivity [4]: 44% | % Cross-reactivity [5]: 4% | Urinary excretory amount [6]: 2-31% | % Cross-reactivity [7]: <2% | % Cross-reactivity [8]: 6% | % Cross-reactivity [9]: <5%

COc1cccc([C@]2(O)CCCC[C@H]2CN(C)C)c1 (racemic) [Tramadol, (±)-cis-2-[(dimethylamino)methyl]-1-(3-methoxyphenyl)cyclohexanol hydrochloride]
Urinary excretory amount [6]: 12-32%
